pIC50: −log10 of the molar value.
What was measured:
Assay in all cases: biochemical
SRPK1 = SRPK1 (Homo sapiens, UniProt Q96SB4)
SRPK2 = SRPK2 (Homo sapiens, UniProt P78362)
SRPK3/MSSK1/STK23 = SRPK3/MSSK1/STK23 (Homo sapiens, UniProt Q9UPE1)
Chain of SRPK3/MSSK1/STK23 (Q9UPE1 whole entry): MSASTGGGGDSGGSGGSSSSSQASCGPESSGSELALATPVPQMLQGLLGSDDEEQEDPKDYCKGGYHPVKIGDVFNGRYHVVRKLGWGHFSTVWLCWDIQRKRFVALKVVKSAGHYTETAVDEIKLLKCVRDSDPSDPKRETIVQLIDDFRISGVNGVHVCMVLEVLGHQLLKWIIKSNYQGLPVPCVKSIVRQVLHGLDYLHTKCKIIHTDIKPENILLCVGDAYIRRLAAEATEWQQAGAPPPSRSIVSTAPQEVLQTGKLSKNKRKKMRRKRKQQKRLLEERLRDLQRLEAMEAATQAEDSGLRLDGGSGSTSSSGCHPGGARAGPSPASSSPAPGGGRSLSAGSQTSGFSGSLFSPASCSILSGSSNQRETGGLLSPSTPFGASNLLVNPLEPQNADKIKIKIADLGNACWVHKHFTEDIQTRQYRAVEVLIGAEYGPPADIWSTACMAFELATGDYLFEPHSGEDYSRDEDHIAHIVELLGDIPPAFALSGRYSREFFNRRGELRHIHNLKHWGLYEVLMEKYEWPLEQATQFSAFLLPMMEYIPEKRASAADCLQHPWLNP

Chain of SRPK1 (Q96SB4 whole entry, species assumed): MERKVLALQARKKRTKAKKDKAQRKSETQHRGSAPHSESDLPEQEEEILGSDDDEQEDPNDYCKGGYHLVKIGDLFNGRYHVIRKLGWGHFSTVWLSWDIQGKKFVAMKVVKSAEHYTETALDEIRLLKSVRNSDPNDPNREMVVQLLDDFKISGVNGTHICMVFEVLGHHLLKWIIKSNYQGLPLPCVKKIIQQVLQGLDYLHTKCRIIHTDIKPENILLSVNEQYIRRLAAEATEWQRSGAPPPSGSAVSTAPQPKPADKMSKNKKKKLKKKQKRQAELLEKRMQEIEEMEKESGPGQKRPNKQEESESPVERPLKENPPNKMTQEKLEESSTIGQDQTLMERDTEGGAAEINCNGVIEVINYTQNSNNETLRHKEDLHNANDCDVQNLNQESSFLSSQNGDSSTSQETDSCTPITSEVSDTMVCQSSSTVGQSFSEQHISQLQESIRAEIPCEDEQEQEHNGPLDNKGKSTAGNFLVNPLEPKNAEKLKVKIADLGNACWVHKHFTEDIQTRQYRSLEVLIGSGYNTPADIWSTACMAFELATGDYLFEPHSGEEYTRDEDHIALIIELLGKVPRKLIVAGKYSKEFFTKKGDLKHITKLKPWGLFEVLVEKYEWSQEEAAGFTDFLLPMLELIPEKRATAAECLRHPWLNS
Chain of SRPK2 (P78362 whole entry, species assumed): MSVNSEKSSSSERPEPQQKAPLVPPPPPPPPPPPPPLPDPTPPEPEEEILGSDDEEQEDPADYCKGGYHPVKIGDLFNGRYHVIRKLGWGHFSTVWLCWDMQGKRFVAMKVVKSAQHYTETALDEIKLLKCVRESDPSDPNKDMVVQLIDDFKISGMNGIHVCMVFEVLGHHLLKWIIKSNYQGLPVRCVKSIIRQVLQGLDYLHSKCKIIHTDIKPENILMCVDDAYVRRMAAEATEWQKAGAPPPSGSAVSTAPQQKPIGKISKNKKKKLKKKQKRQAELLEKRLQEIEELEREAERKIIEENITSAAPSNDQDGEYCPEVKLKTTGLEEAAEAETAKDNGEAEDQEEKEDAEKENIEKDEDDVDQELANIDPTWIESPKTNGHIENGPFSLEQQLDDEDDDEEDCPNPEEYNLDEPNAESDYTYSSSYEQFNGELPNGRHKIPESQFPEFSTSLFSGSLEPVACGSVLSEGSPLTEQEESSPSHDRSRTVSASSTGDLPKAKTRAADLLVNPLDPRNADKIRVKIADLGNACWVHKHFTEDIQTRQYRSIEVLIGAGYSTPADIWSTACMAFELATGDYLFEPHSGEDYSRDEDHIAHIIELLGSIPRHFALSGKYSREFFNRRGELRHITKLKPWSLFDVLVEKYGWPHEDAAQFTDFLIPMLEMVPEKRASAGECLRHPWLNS

| SMILES | pIC50 (SRPK1) | pIC50 (SRPK2) | pIC50 (SRPK3/MSSK1/STK23) |
| --- | --- | --- | --- |
| CN(c1ncncc1CNc1ccnc(-c2nc3cc(Cl)ccc3[nH]2)n1)S(C)(=O)=O [Compound B4] | 6.30 to 7.30 | 5.60 to 6.30 |  |
| CCn1c(-c2nccc(NCc3cccnc3N(C)S(C)(=O)=O)n2)nc2cc(Cl)ccc21 [Compound B15] | > 7.30 | 5.60 to 6.30 |  |
| CCN(c1ncccc1Cn1ccc2cnc(-c3nc4cc(Cl)ccc4[nH]3)cc21)S(C)(=O)=O [Compound B16] | 6.30 to 7.30 | 6.30 to 7.30 | 6.30 to 7.30 |
| CN(c1ncccc1CNc1ccnc(-c2nc3cc(C(C)(C)C)c(F)cc3[nH]2)n1)S(C)(=O)=O [Compound B18] | 6.30 to 7.30 | 5.60 to 6.30 | > 7.30 |
| CN(c1ncccc1CNc1ccnc(-c2nc3cc(Cl)c(Cl)cc3n2C)n1)S(C)(=O)=O [Compound B19] |  | 6.30 to 7.30 |  |
| CN(c1ncccc1Cn1c(=O)ccc2cnc(-c3nc4cc(Cl)ccc4[nH]3)cc21)S(C)(=O)=O [Compound B20] | 6.30 to 7.30 | 6.30 to 7.30 | 5.60 to 6.30 |
| Cc1cc2cnc(-c3nc4cc(Cl)ccc4n3C)nc2n1Cc1cccnc1N(C)S(C)(=O)=O [Compound B21] | > 7.30 | 6.30 to 7.30 | 6.30 to 7.30 |
| Cc1cc2cnc(-c3nc4cc(Cl)c(Cl)cc4n3C)nc2n1Cc1cccnc1N(C)S(C)(=O)=O [Compound B22] | > 7.30 | 6.30 to 7.30 | 6.30 to 7.30 |

The next lines start with the values.

| pIC50 (SRPK1) | pIC50 (SRPK2) | pIC50 (SRPK3/MSSK1/STK23) | SMILES |
| --- | --- | --- | --- |
| > 7.30 | 6.30 to 7.30 |  | CN(c1ccccc1CNc1cccc(-c2nc3cc(Cl)ccc3[nH]2)n1)S(C)(=O)=O [Compound B3] |
| 6.30 to 7.30 | 6.30 to 7.30 | > 7.30 | CN(c1ncccc1CNc1cccc(-c2nc3cc(Cl)ccc3n2C)n1)S(C)(=O)=O [Compound B6] |
| > 7.30 | 6.30 to 7.30 |  | CCN(c1ncccc1CNc1ccnc(-c2nc3cc(Cl)ccc3[nH]2)n1)S(C)(=O)=O [Compound B8] |
| > 7.30 | 6.30 to 7.30 | > 7.30 | Cc1cc(Cl)cc2nc(-c3nccc(NCc4cccnc4N(C)S(C)(=O)=O)n3)[nH]c12 [Compound B9] |
